From patent US20200016133A1, “PREVENTION AND TREATMENT OF THROMBOSIS IN MEDICALLY ILL PATIENTS” (Portola Pharmaceuticals, Inc., priority 2011, published 2020)

Experiment: effect of co-administered P-glycoprotein (Pgp) inhibitor on betrixaban exposure
Type: in vivo
Conditions: with concomitant Pgp inhibitor
Experimental: In some embodiments, a P-glycoprotein (Pgp) inhibitor is concomitantly administered to the patient. […] In one aspect, when used together with a Pgp inhibitor, betrixaban is administered at about 40 mg, or alternatively about 35 mg, or 30, or 25, or 20, or 15, or 10 mg daily. The same amount is applicable to patients who experience kidney insufficiency.

With `COc1ccc(NC(=O)c2ccc(C(=N)N(C)C)cc2)c(C(=O)Nc2ccc(Cl)cn2)c1` [betrixaban, [2-({4-[(dimethylamino)iminomethyl]phenyl}carbonylamino)-5-methoxyphenyl]-N-(5-chloro(2-pyridyl))carboxamide] the exposure of betrixaban was “increases the exposure”.
